Test results published in patent publication US10487044B2, “Gamma-aminobutyric acid hemihydrate crystal and preparation method thereof” (priority 2016, dated 2019).
Read-outs that look alike come from different tables or passages of the source.

Experiments:
Bulk density test = format: physicochemical
[1] = Flowability test (angle of repose); format: physicochemical
Method: Flowability test: The angle of repose is the maximum angle formed between the free slope of a piled powder and the horizontal plane. It is measured when the particles achieve a static state as they slide on the free slope of the piled powder and experience a balance of gravity and interparticle friction. It is the easiest way to examine the flowability of a powder. The smaller the angle of repose, the smaller the friction and the better the flowability.

[2] = Moisture absorption and agglomeration; format: physicochemical
[3] = prior-art product, exposed to air; cited from earlier work
[4] = Particle size distribution by laser particle size analyzer; format: physicochemical; details: hemihydrate
Source text: The particle size distribution curves of the products in the embodiments of the present invention were all determined by Masterizer laser particle size analyzer from Malvern Panalytical (the U.K.).

Row | Compound | bulk density (in words) (Bulk density test) | flowability (in words) [1] | moisture absorption and agglomeration [2] | other results
1 | NCCCC(=O)O | – | – | – | hygroscopicity [3]: highly hygroscopic
2 | NCCCC(=O)O [Embodiment 1, γ-aminobutyric acid hemihydrate] | – | – | did not easily absorb moisture and agglomerate | bulk density (Bulk density test; hemihydrate): 0.85 g/mL; angle of repose ([1]; hemihydrate): 38 °; main particle size [4]: 110 μm
3 | NCCCC(=O)O [Embodiment 2, γ-aminobutyric acid hemihydrate] | high bulk density | good flowability | did not easily absorb moisture and agglomerate | –
4 | NCCCC(=O)O [crude λ-aminobutyric acid raw material, γ-aminobutyric acid, reference compound] | – | – | – | bulk density (Bulk density test): 0.65 g/mL; angle of repose [1]: 50 °

Now from value to compound, other results behind:

Row | bulk density (in words) (Bulk density test) | flowability (in words) [1] | Compound | moisture absorption and agglomeration [2] | other results
5 | high bulk density | good flowability | NCCCC(=O)O [Embodiment 6, γ-aminobutyric acid hemihydrate] | did not easily absorb moisture and agglomerate | –
6 | high bulk density | good flowability | NCCCC(=O)O [Embodiment 5, γ-aminobutyric acid hemihydrate] | did not easily absorb moisture and agglomerate | –
7 | high bulk density | good flowability | NCCCC(=O)O [Embodiment 3, γ-aminobutyric acid hemihydrate] | did not easily absorb moisture and agglomerate | –
8 | high bulk density | good flowability | NCCCC(=O)O [Embodiment 4, γ-aminobutyric acid hemihydrate] | did not easily absorb moisture and agglomerate | –
